# According to patent publication US11773085B2 (Foghorn Therapeutics Inc., priority 2018, dated 2023):
# Biological target: BRD9 bromodomain (Homo sapiens (Human), UniProt Q9H8M2)
# Experiment: BRD9 bromodomain TR-FRET competition binding assay
# Settings: 3 nM Flag-BRD9, 3.75 nM biotinylated ligand, 90 minutes at room temperature
# Description: Cleaved His tag was removed by purification.
# A mixture of biotinylated-ligand and SureLight™ Allophycocyanin-Streptavidin (APC-SA, PerkinElmer AD0201) in 50 mM HEPES (pH 7.4), 50 mM NaCl, 1 mM TCEP (pH 7), 0.01% (v/v) Tween-20, 0.01% (w/v) bovine serum albumin was added to a white 384-well PerkinElmer Proxiplate Plus plate. DMSO or 3-fold serially diluted compounds were then added to the Proxiplate followed by addition of Flag-BRD9. After a 10 minute incubation at room temperature, Eu-W1024 anti-FLAG (PerkinElmer, AD0273) was added.
row,Structure (SMILES),IC50
1,Cn1cc(C(=O)Nc2ccccc2)c2cn[nH]c2c1=O [Compound B8],> 1000 nM
2,Cn1cc(C(=O)NCc2ccccc2)c2ccncc2c1=O [Compound B3],> 1000 nM
3,"COc1cc(-c2cc(NC(=O)N(C)C)c3nnc(C)n3c2)cc(OC)c1CN(C)C [Compound B57, 1-(6-[4-[(dimethylamino)methyl]-3,5-dimethoxyphenyl]-3-methyl-[1,2,4]triazolo[4,3-a]pyridin-8-yl)-3,3-dimethylurea]",> 1000 nM
4,"CCC(=O)Nc1cc(-c2cc(OC)c(CN(C)C)c(OC)c2)cn(C)c1=O [Compound B30, N-(5-[4-[(dimethylamino)methyl]-3,5-dimethoxyphenyl]-1-methyl-2-oxo-1,2-dihydropyridin-3-yl)propanamide]",100 to 1000 nM
5,"CC(=O)c1cc(-c2cccc3nccn23)c2cc(N3CCNCC3)ccn12 [Compound B19, 1-(1-[imidazo[1,2-a]pyridin-5-yl]-7-(piperazin-1-yl)indolizin-3-yl)ethan-1-one]",100 to 1000 nM
6,CCNC(=O)c1cn(C)c(=O)c2[nH]ncc12 [Compound B6],> 1000 nM
7,"CC(=O)c1cc(-c2cccc3nccn23)c2cc(N3CCN(C)CC3)ccn12 [Compound B17, 1-(1-[imidazo[1,2-a]pyridin-5-yl]-7-(4-methylpiperazin-1-yl)indolizin-3-yl)ethan-1-one]",100 to 1000 nM
8,COc1cc(/C=C/c2c(C)noc2C)cc(OC)c1CN(C)C [Compound B68],> 1000 nM
9,Cn1cc(C(=O)NCc2ccccc2)c2cn[nH]c2c1=O [Compound B5],> 1000 nM
10,"CN(C)Cc1ccc(-c2cn(C)c(=O)c3cnccc23)cc1S(C)(=O)=O [Compound B37, 4-[4-[(dimethylamino)methyl]-3-methanesulfonylphenyl]-2-methyl-2,7-naphthyridin-1-one]",100 to 1000 nM
11,Cn1cc(C(=O)NCc2cccc3ccccc23)c2cn[nH]c2c1=O [Compound B4],> 1000 nM
12,CC(C)n1cc(C(=O)NCc2ccccc2)c2cn[nH]c2c1=O [Compound B12],> 1000 nM
13,"COc1cc(-c2cc(C)c(=O)n(C)c2)cc(OC)c1CN1CC(C(=O)O)C1 [Compound B48, 1-[[4-(1,5-dimethyl-6-oxopyridin-3-yl)-2,6-dimethoxyphenyl]methyl]azetidine-3-carboxylic acid]",100 to 1000 nM
14,CCCn1cc(C(=O)NCc2ccccc2)c2cn[nH]c2c1=O [Compound B10],> 1000 nM
15,COc1cc(C#N)ccc1S(=O)(=O)Nc1ccc2c(c1)cc(C)c(=O)n2C [Compound B26],> 1000 nM
16,"COc1c(CN(C)C)ccc(-c2cn(C)c(=O)c3cnccc23)c1F [Compound B66, 4-(4-((dimethylamino)methyl)-2-fluoro-3-methoxyphenyl)-2-methyl-2,7-naphthyridin-1(2H)-one]",100 to 1000 nM
17,O=C(NCc1ccccc1)c1cn(CC2CC2)c(=O)c2[nH]ncc12 [Compound B13],> 1000 nM
18,CCN(C)C(=O)c1cn(C)c(=O)c2[nH]ncc12 [Compound B11],> 1000 nM
19,CCn1cc(C(=O)NCc2ccccc2)c2cn[nH]c2c1=O [Compound B9],> 1000 nM
20,CN(Cc1ccccc1)C(=O)c1cn(C)c(=O)c2[nH]ncc12 [Compound B7],> 1000 nM

# The remaining lines, values ahead:
row,IC50,Structure (SMILES)
1,100 to 1000 nM,"COc1cc(-c2cc(NC(C)=O)c(=O)n(C)c2)cc(OC)c1CN(C)C [Compound B29, N-(5-[4-[(dimethylamino)methyl]-3,5-dimethoxyphenyl]-1-methyl-2-oxo-1,2-dihydropyridin-3-yl)acetamide]"
2,100 to 1000 nM,"COc1cc(-c2cn(C)c(=O)c3nccnc23)cc(OC)c1CN(C)C [Compound B33, 8-[4-[(dimethylamino)methyl]-3,5-dimethoxyphenyl]-6-methylpyrido[3,4-b]pyrazin-5-one]"
3,10 to 100 nM,"CNC(=O)[C@@H]1CCN1Cc1c(OC)cc(-c2cn(C)c(=O)c3cnccc23)cc1OC [Compound B56, (2S)-1-[[2,6-dimethoxy-4-(2-methyl-1-oxo-2,7-naphthyridin-4-yl)phenyl]methyl]-N-methylazetidine-2-carboxamide]"
4,< 10 nM,"COc1cc(-c2cn(C)c(=O)c3cnccc23)cc(OC)c1CN1CC(C(=O)NCCCCCCCCNc2ccccc2)C1 [Compound B44, 1-[[2,6-dimethoxy-4-(2-methyl-1-oxo-1,2-dihydro-2,7-naphthyridin-4-yl)phenyl]methyl]-N-[8-(phenylamino)octyl]azetidine-3-carboxamide]"
5,< 10 nM,"CNC(=O)C1CN(Cc2c(OC)cc(-c3cn(C)c(=O)c4cnccc34)cc2OC)C1 [Compound B34, 1-[[2,6-dimethoxy-4-(2-methyl-1-oxo-1,2-dihydro-2,7-naphthyridin-4-yl)phenyl]methyl]-N-methylazetidine-3-carboxamide formic acid]"
6,10 to 100 nM,"COc1cc(-c2cn(C)c(=O)c3cnccc23)cc(OC)c1CN1CC(CC(=O)O)C1 [Compound B41, 2-(1-[[2,6-dimethoxy-4-(2-methyl-1-oxo-1,2-dihydro-2,7-naphthyridin-4-yl)phenyl]methyl]azetidin-3-yl)acetic acid formic acid]"
7,10 to 100 nM,"COc1cc(-c2cc(N)c(=O)n(C)c2)cc(OC)c1CN(C)C [Compound B28, 3-amino-5-(4-((dimethylamino)methyl)-3,5-dimethoxyphenyl)-1-methylpyridin-2(1H)-one]"
8,10 to 100 nM,"COc1cc(-c2cn(C)c(=O)c3cnccc23)cc(OC)c1CN(C)S(=O)(=O)C(C)C [Compound B49, N-[[2,6-dimethoxy-4-(2-methyl-1-oxo-2,7-naphthyridin-4-yl)phenyl]methyl]-N-methyl propane-2-sulfonamide]"
9,< 10 nM,"COc1cc(-c2cn(C)c(=O)c3cnccc23)cc(OC)c1CN1CC(N)C1 [Compound B20, 4-[4-[(3-aminoazetidin-1-yl)methyl]-3,5-dimethoxyphenyl]-2-methyl-1,2-dihydro-2,7-naphthyridin-1-one]"
10,10 to 100 nM,"CSc1cc(-c2cn(C)c(=O)c3cnccc23)ccc1CN(C)C [Compound B36, 4-[4-[(dimethylamino)methyl]-3-(methylsulfanyl)phenyl]-2-methyl-1,2-dihydro-2,7-naphthyridin-1-one]"
11,10 to 100 nM,"CNCc1c(OC)cc(-c2cn(C)c(=O)c3cnccc23)cc1OC [Compound B53, 4-[3,5-dimethoxy-4-[(methylamino)methyl]phenyl]-2-methyl-1,2-dihydro-2,7-naphthyridin-1-one]"
12,10 to 100 nM,CCOC(=O)Nc1cc(-c2cc(OC)c(CN(C)C)c(OC)c2)cn(C)c1=O [Compound B32]
13,10 to 100 nM,"COc1cc(-c2cn(C)c(=O)c3cnccc23)cc(OC)c1CN1CC[C@H]1C(=O)O [Compound B45, (2S)-1-[[2,6-dimethoxy-4-(2-methyl-1-oxo-2,7-naphthyridin-4-yl)phenyl]methyl] azetidine-2-carboxylic acid]"
14,< 10 nM,"COc1cc(-c2cn(C)c(=O)c3cnccc23)cc(OC)c1CN(C)S(=O)(=O)C1CC1 [Compound B39, N-[[2,6-dimethoxy-4-(2-methy-1-oxo-2,7-naphthyridin-4-yl)phenyl]methyl]-N-methyl cyclopropanesulfonamide]"
15,10 to 100 nM,"CNC(=O)c1ccc2c(-c3cc(OC)c(CN(C)C)c(OC)c3)cn(C)c(=O)c2c1 [Compound B59, 4-[4-[(dimethylamino)methyl]-3,5-dimethoxyphenyl]-N,2-dimethyl-1-oxoisoquinoline-7-carboxamide]"
16,10 to 100 nM,"COc1cc(-c2cn(C3CC3)c(=O)c3cnccc23)cc(OC)c1CN(C)C [Compound B22, 2-cyclopropyl-4-[4-[(dimethylamino)methyl]-3,5-dimethoxyphenyl]-2,7-naphthyridin-1-one]"
17,10 to 100 nM,"COc1cc(-c2cn(C)c(=O)c3[nH]cnc23)cc(OC)c1CN(C)C [Compound B47, 7-[4-[(dimethylamino)methyl]-3,5-dimethoxyphenyl]-5-methyl-3H-imidazo[4,5-c]pyridin-4-one formic acid]"
18,< 10 nM,"COc1cc(-c2cn(C)c(=O)c3[nH]ncc23)cc(OC)c1CN(C)C [Compound B43, 4-(4-((dimethyllamino)methyl)-3,5-dimethoxyphenyl)-6-methyl-1,6-dihydro-7H-pyrazolo[3,4-c]pyridin-7-one]"
19,< 10 nM,"COc1cc(-c2cn(C)c(=O)c3cnccc23)cc(OC)c1CN(C)S(C)(=O)=O [Compound B38, N-[[2,6-dimethoxy-4-(2-methyl-1-oxo-2,7-naphthyridin-4-yl)phenyl]methyl]-N-methylmethanesulfonamide]"
20,10 to 100 nM,"COc1cc(-c2cn(C)c(=O)c3cnncc23)cc(OC)c1CN(C)C [Compound B52, 8-[4-[(dimethylamino)methyl]-3,5-dimethoxyphenyl]-6-methyl-5H,6H-pyrido[3,4-d]pyridazin-5-one]"
21,10 to 100 nM,CNCc1ccc(-c2cn(C)c(=O)c3[nH]ccc23)cc1 [Compound B14]
22,< 10 nM,"COc1cc(-c2cn(C)c(=O)c3cnccc23)cc(OC)c1CN(C)S(=O)(=O)CC(C)C [Compound B40, N-[[2,6-dimethoxy-4-(2-methyl-1-oxo-2,7-naphthyridin-4-yl)phenyl]methyl]-N,2-dimethylpropane-1-sulfonamide]"
23,10 to 100 nM,"CNCc1c(OC)cc(-c2cn(C3CC3)c(=O)c3cnccc23)cc1OC [Compound B18, 2-cyclopropyl-4-[3,5-dimethoxy-4-[(methylamino)methyl]phenyl]-2,7-naphthyridin-1-one]"
24,< 10 nM,"COc1cc(-c2cn(C)c(=O)c3cnccc23)cc(SC)c1CN(C)C [Compound B54, 4-[4-[(dimethylamino)methyl]-3-methoxy-5-(methylsulfanyl)phenyl]-2-methyl-1,2-dihydro-2,7-naphthyridin-1-one]"
25,10 to 100 nM,"COc1cc(-c2nn(C)c(=O)c3cnccc23)cc(OC)c1CN(C)C [Compound B62, 1-(4-((dimethylamino)methyl)-3,5-dimethoxyphenyl)-3-methylpyrido[3,4-d]pyridazin-4(3H)-one 2,2,2-trifluoroacetate]"
